Paper PMC10482975 (Nature Communications, 2023)
Residue numbers refer to the chain shown, from its start.

Key:
M4 mAChR Q184A = target: T1, M4 mAChR Q184A (Homo sapiens, UniProt P08173, Q184A); test: [3H]-NMS radioligand dissociation binding, M4 mAChR Q184A; parameters: unit not given here
T1 construct: expressed in transfected cells
T1 sequence (P08173 1-479 Q184A): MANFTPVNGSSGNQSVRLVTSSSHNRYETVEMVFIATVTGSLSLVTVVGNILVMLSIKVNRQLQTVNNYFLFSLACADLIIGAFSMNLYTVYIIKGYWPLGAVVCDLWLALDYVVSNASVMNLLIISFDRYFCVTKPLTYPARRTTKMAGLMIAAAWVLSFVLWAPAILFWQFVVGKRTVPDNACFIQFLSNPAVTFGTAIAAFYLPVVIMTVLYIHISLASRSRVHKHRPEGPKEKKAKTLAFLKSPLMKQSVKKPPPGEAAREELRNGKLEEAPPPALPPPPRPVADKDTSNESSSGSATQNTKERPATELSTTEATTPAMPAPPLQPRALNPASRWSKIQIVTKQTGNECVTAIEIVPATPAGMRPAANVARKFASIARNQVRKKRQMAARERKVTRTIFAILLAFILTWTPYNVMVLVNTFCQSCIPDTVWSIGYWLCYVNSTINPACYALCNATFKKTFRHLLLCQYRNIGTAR
Protocol: (§1) Flp-In Chinese hamster ovary (CHO) (Thermo Fisher Scientific) cells stably expressing mAChR WTs or mutant constructs were cultured in Dulbecco’s modified Eagle’s medium (DMEM, Invitrogen) containing 5% foetal bovine serum (FBS; ThermoTrace) and […] of hygromycin (Roche) in a humidified incubator (37 °C, 5% CO2). Upon reaching confluence, media was removed, cells were washed with phosphate buffered saline (PBS) and harvested from tissue culture flasks using versene (PBS with 0.2 g EDTA). Cells were then pelleted through centrifugation at 350 × g for three minutes followed by resuspension in DMEM + 5% FBS. Cells were then either plated for an assay or reseeded into a tissue culture flask.

M4 mAChR W435A = target: T2, M4 mAChR W435A (Homo sapiens, UniProt P08173, W435A); test: [3H]-NMS radioligand dissociation binding, M4 mAChR W435A; parameters: [3H]-NMS binding remaining vs Total Binding, MEAN: unit not given here; conditions: for [3H]-NMS binding remaining vs Total Binding, MEAN: M4 W435A mAChR
T2 construct: expressed in transfected cells
T2 sequence (P08173 1-479 W435A): T1 sequence (P08173 1-479 Q184A) with A184Q, W435A
Protocol: as §1

M4 mAChR Y92A = target: T3, M4 mAChR Y92A (Homo sapiens, UniProt P08173, Y92A); test: [3H]-NMS radioligand dissociation binding, M4 mAChR Y92A; parameters: [3H]-NMS binding remaining vs Total Binding, MEAN: unit not given here; conditions: for [3H]-NMS binding remaining vs Total Binding, MEAN: M4 Y92A mAChR
T3 construct: expressed in transfected cells
T3 sequence (P08173 1-479 Y92A): T1 sequence (P08173 1-479 Q184A) with Y92A, A184Q
Protocol: as §1

M2 mAChR WT = target: T4, M2 mAChR WT (Homo sapiens, UniProt P08172); test: [3H]-NMS radioligand dissociation binding, M2 mAChR WT
T4 construct: expressed in transfected cells
T4 sequence (P08172 1-466): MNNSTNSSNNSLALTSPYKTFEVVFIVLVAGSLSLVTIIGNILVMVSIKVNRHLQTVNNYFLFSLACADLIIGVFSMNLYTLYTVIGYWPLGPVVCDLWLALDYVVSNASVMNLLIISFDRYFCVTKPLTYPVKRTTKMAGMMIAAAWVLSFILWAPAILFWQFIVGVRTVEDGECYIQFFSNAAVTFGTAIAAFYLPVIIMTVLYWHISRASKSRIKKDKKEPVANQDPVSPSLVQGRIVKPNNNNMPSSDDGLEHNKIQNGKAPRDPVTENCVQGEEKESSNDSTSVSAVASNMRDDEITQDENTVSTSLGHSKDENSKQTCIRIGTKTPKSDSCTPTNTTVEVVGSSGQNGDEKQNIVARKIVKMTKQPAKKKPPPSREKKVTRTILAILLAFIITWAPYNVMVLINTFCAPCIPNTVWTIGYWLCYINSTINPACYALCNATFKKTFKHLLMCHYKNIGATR
Protocol: as §1

[1] = + 10uM LY2033 (Allosteric Ligand), Time 0 min (Total Binding)
[2] = + 10uM LY2033 (Allosteric Ligand), Time 30 min
[3] = + 10uM LY2033 (Allosteric Ligand), Time 60 min
[4] = + 10uM LY2033 (Allosteric Ligand), Time 90 min
[5] = + 10uM LY2033 (Allosteric Ligand), Time 120 min
[6] = + 10uM LY2033 (Allosteric Ligand), Time 180 min
[7] = + 10uM LY2033 (Allosteric Ligand), Time 300 min

## COc1nc2sc(C(=O)NC3CC3)c(N)c2c(C)c1Cl [LY2033298]
M4 mAChR Q184A; [1]
  [3H]-NMS binding remaining vs Total Binding, MEAN: 100
M4 mAChR Q184A; [2]
  [3H]-NMS binding remaining vs Total Binding, MEAN: 89.0052
M4 mAChR Q184A; [3]
  [3H]-NMS binding remaining vs Total Binding, MEAN: 100.674
M4 mAChR Q184A; [4]
  [3H]-NMS binding remaining vs Total Binding, MEAN: 109.408
M4 mAChR Q184A; [5]
  [3H]-NMS binding remaining vs Total Binding, MEAN: 91.4218
M4 mAChR Q184A; [6]
  [3H]-NMS binding remaining vs Total Binding, MEAN: 88.0443
M4 mAChR Q184A; [7]
  [3H]-NMS binding remaining vs Total Binding, MEAN: 76.9832
M4 mAChR W435A; [1]
  [3H]-NMS binding remaining vs Total Binding, MEAN: 100
M4 mAChR W435A; [2]
  [3H]-NMS binding remaining vs Total Binding, MEAN: 87.6204
M4 mAChR W435A; [3]
  [3H]-NMS binding remaining vs Total Binding, MEAN: 83.5904
M4 mAChR W435A; [4]
  [3H]-NMS binding remaining vs Total Binding, MEAN: 79.4133
M4 mAChR W435A; [5]
  [3H]-NMS binding remaining vs Total Binding, MEAN: 78.9331
M4 mAChR W435A; [6]
  [3H]-NMS binding remaining vs Total Binding, MEAN: 67.1451
M4 mAChR W435A; [7]
  [3H]-NMS binding remaining vs Total Binding, MEAN: 50.6666
M4 mAChR Y92A; [1]
  [3H]-NMS binding remaining vs Total Binding, MEAN: 100
M4 mAChR Y92A; [2]
  [3H]-NMS binding remaining vs Total Binding, MEAN: 108.824
M4 mAChR Y92A; [3]
  [3H]-NMS binding remaining vs Total Binding, MEAN: 96.2598
M4 mAChR Y92A; [4]
  [3H]-NMS binding remaining vs Total Binding, MEAN: 94.6146
M4 mAChR Y92A; [5]
  [3H]-NMS binding remaining vs Total Binding, MEAN: 83.2371
M4 mAChR Y92A; [6]
  [3H]-NMS binding remaining vs Total Binding, MEAN: 74.311
M4 mAChR Y92A; [7]
  [3H]-NMS binding remaining vs Total Binding, MEAN: 49.3255
M2 mAChR WT; 10uM Atr + 30uM LY2033, 5 min
  [3H]-NMS binding remaining (0 min = 100), MEAN: 100.231
M2 mAChR WT; 10uM Atr + 30uM LY2033, 10 min
  [3H]-NMS binding remaining (0 min = 100), MEAN: 104.86
M2 mAChR WT; 10uM Atr + 30uM LY2033, 15 min
  [3H]-NMS binding remaining (0 min = 100), MEAN: 105.465
M2 mAChR WT; 10uM Atr + 30uM LY2033, 30 min
  [3H]-NMS binding remaining (0 min = 100), MEAN: 97.2904
M2 mAChR WT; 10uM Atr + 30uM LY2033, 40 min
  [3H]-NMS binding remaining (0 min = 100), MEAN: 99.7247
M2 mAChR WT; 10uM Atr + 30uM LY2033, 60 min
  [3H]-NMS binding remaining (0 min = 100), MEAN: 83.2953
M2 mAChR WT; 10uM Atr + 30uM LY2033, 90 min
  [3H]-NMS binding remaining (0 min = 100), MEAN: 74.9771

## C[N+](C)(C)CC#CCOC1=NOCC1 [iperoxo]
M2 mAChR WT; 10uM Atr + 10 μM Iperoxo, 5 min
  [3H]-NMS binding remaining (0 min = 100), MEAN: 84.1199
M2 mAChR WT; 10uM Atr + 10 μM Iperoxo, 10 min
  [3H]-NMS binding remaining (0 min = 100), MEAN: 57.067
M2 mAChR WT; 10uM Atr + 10 μM Iperoxo, 15 min
  [3H]-NMS binding remaining (0 min = 100), MEAN: 42.2975
M2 mAChR WT; 10uM Atr + 10 μM Iperoxo, 30 min
  [3H]-NMS binding remaining (0 min = 100), MEAN: 18.0197
M2 mAChR WT; 10uM Atr + 10 μM Iperoxo, 40 min
  [3H]-NMS binding remaining (0 min = 100), MEAN: 11.4621
M2 mAChR WT; 10uM Atr + 10 μM Iperoxo, 60 min
  [3H]-NMS binding remaining (0 min = 100), MEAN: 5.852
M2 mAChR WT; 10uM Atr + 10 μM Iperoxo, 90 min
  [3H]-NMS binding remaining (0 min = 100), MEAN: 5.287

## CCCCCCOc1nsnc1C1=CCCN(C)C1 [xanomeline]
M4 mAChR Q184A; +100uM Xano, Time 30 min
  [3H]-NMS binding remaining vs Total Binding, MEAN: 83.7482
M4 mAChR Q184A; +100uM Xano, Time 60 min
  [3H]-NMS binding remaining vs Total Binding, MEAN: 84.3012
M4 mAChR Q184A; +100uM Xano, Time 90 min
  [3H]-NMS binding remaining vs Total Binding, MEAN: 69.8323
M4 mAChR Q184A; +100uM Xano, Time 120 min
  [3H]-NMS binding remaining vs Total Binding, MEAN: 76.4651
M4 mAChR Q184A; +100uM Xano, Time 180 min
  [3H]-NMS binding remaining vs Total Binding, MEAN: 50.1077
M4 mAChR Q184A; +100uM Xano, Time 300 min
  [3H]-NMS binding remaining vs Total Binding, MEAN: 18.2224
M4 mAChR W435A; +100uM Xano, Time 30 min
  [3H]-NMS binding remaining vs Total Binding, MEAN: 96.9648
M4 mAChR W435A; +100uM Xano, Time 60 min
  [3H]-NMS binding remaining vs Total Binding, MEAN: 87.005
M4 mAChR W435A; +100uM Xano, Time 90 min
  [3H]-NMS binding remaining vs Total Binding, MEAN: 77.1921
M4 mAChR W435A; +100uM Xano, Time 120 min
  [3H]-NMS binding remaining vs Total Binding, MEAN: 74.9315
M4 mAChR W435A; +100uM Xano, Time 180 min
  [3H]-NMS binding remaining vs Total Binding, MEAN: 64.2361
M4 mAChR W435A; +100uM Xano, Time 300 min
  [3H]-NMS binding remaining vs Total Binding, MEAN: 31.9462
M4 mAChR W435A; M4 mAChR W435A mutant
  effect on [3H]-NMS dissociation (in words): loss in xanomeline modulation
M4 mAChR Y92A; +100uM Xano, Time 30 min
  [3H]-NMS binding remaining vs Total Binding, MEAN: 84.6188
M4 mAChR Y92A; +100uM Xano, Time 60 min
  [3H]-NMS binding remaining vs Total Binding, MEAN: 76.9087
M4 mAChR Y92A; +100uM Xano, Time 90 min
  [3H]-NMS binding remaining vs Total Binding, MEAN: 63.0845
M4 mAChR Y92A; +100uM Xano, Time 120 min
  [3H]-NMS binding remaining vs Total Binding, MEAN: 54.6505
M4 mAChR Y92A; +100uM Xano, Time 300 min
  [3H]-NMS binding remaining vs Total Binding, MEAN: 15.7486
M4 mAChR Y92A; M4 mAChR Y92A mutant
  effect on [3H]-NMS dissociation (in words): loss in xanomeline modulation
M2 mAChR WT
  allosteric effect on [3H]-NMS dissociation (in words): more pronounced
